{"source": "patent US20010028878A1", "about": "“In vitro maturation of human oocytes in one day” (priority 1998, published 2001)", "origin": "cited, not measured here", "test_system": "human oocytes", "conditions": "presence of insulin in the culture medium; recent research", "data": [{"substance": "insulin", "values": [{"measurement": "effect on the chance for successful pregnancy", "value": "negative effect"}]}]}
